Literature values, collected in paper PMC9056484 (Advances in Therapy, 2022).
Read-outs that look alike come from different tables or passages of the source.

Columns and labels:
human albumin = conditions: concentration range 1–100 ng/ml
[1] = tested on: Parkinson's disease patients; conditions: for effects on clinical progression (in words): delayed-start design trial
[2] = tested on: early Parkinson disease patients; conditions: rasagiline 1 mg/day, Week 26
early PD patients [3] = tested on: early PD patients
[4] = not given; remark: listed apart in the source
[5] = tested on: Parkinson's disease patients; conditions: pramipexole monotherapy
[6] = tested on: early Parkinson's disease patients; conditions: pramipexole 1.5 mg/day, 9 months
early PD patients [7] = conditions: higher doses of pramipexole in early PD
[8] = tested on: early Parkinson's disease patients
[9] = not given; remark: listed apart in the source
[10] = tested on: early Parkinson disease patients
dopamine D3 receptor = conditions: read-out: Ki, D3 receptor
[11] = Pramipexole 0.5 mg BID, n = 81, PRAMI-BID
[12] = Pramipexole 0.5 mg TID, n = 80, PRAMI-BID
[13] = Pramipexole 0.75 mg BID, n = 73, PRAMI-BID
[14] = Pramipexole 1.5 mg, n = 54, STEP-UP
[15] = Pramipexole groups combined (1.5–6 mg), N = 213, STEP-UP

## NC1CCc2ccccc21 (centres unmarked) [1-aminoindan]
MAO-B
  MAO-B inhibition (in words): weak MAO-B inhibitor

## C#CCN[C@@H]1CCc2ccccc21 [Rasagiline, N-propargyl-1-(R)-aminoindan]
Human albumin
  mean extent of binding to human albumin: 61–63%
other
  absolute bioavailability: about 36%
  time to peak plasma concentration (Cmax): approximately 1 hour
[1]; rasagiline 1.0 mg
  effects on clinical progression (in words): statistically significant effects on clinical progression
[1]; rasagiline 1 mg/day, ~ Week 36
  improvement of Total UPDRS scores versus placebo: 3.0 points
[1]; rasagiline 2.0 mg
  effects on clinical progression (in words): but not 2.0 mg, had statistically significant effects
[2]
  improvement of Total UPDRS scores versus placebo: 4.2 points
MAO-B
  MAO-B inhibition (in words): potent and irreversible inhibitor of MAO-B

## CCCN[C@H]1CCc2nc(N)sc2C1 [Pramipexole]
Early PD patients [3]; pramipexole pivotal studies in early PD
  incidence of somnolence: 22%
Early PD patients [3]; pramipexole up to 4.5 mg/day, early PD pivotal trials
  patients with hallucinations: 16.5%
[4]
  protein bound: < 20%
[5]
  disease-modifying effect (in words): did not find evidence of a disease-modifying effect
[6]
  improvement of Total UPDRS scores versus placebo: 4.8 points
Early PD patients [7]
  placebo-adjusted changes from baseline in ESS score: 1.0–2.1
[8]; [11]
  Adverse event: Abnormal dreams: 3 (3.7)
  Adverse event: Constipation: 8 (9.9)
  Adverse event: Dizziness: 9 (11.1)
  Adverse event: Fatigue: 6 (7.4)
  Adverse event: Headache: 7 (8.6)
  Adverse event: Insomnia: 3 (3.7)
  Adverse event: Nausea: 18 (22.2)
  Adverse event: Peripheral edema: 2 (2.5)
  Adverse event: Somnolence: 14 (17.3)
[8]; [12]
  Adverse event: Abnormal dreams: 5 (6.3)
  Adverse event: Constipation: 5 (6.3)
  Adverse event: Dizziness: 9 (11.3)
  Adverse event: Fatigue: 4 (5.0)
  Adverse event: Headache: 4 (5.0)
  Adverse event: Insomnia: 6 (7.5)
  Adverse event: Nausea: 15 (18.8)
  Adverse event: Peripheral edema: 3 (3.8)
  Adverse event: Somnolence: 20 (25.0)
[8]; [13]
  Adverse event: Abnormal dreams: 2 (2.7)
  Adverse event: Constipation: 7 (9.6)
  Adverse event: Dizziness: 5 (6.8)
  Adverse event: Fatigue: 7 (9.6)
  Adverse event: Headache: 6 (8.2)
  Adverse event: Insomnia: 11 (15.1)
  Adverse event: Nausea: 11 (15.1)
  Adverse event: Peripheral edema: 4 (5.5)
  Adverse event: Somnolence: 16 (21.9)
[8]; pramipexole 1.0 mg/day (0.5 mg BID), P = 0.32
  Effects on PDQ-39 Total scores versus placebo (in words): not significantly different from placebo
[8]; pramipexole 1.5 mg/day (0.75 mg BID or 0.5 mg TID), P ≤ 0.05
  PDQ-39 Total scores, treatment effect vs. placebo: 2.1 points
[8]; pramipexole 1–1.5 mg/day, Week 12
  placebo-adjusted improvements in Total UPDRS: 4.4–4.7 points
[9]
  absolute oral bioavailability: > 90%
[9]; almost exclusively by the kidneys
  absorbed dose eliminated unchanged: > 90%
[10]; [14]
  Adverse event: Confusion: 3 (5.6)
  Adverse event: Constipation: 4 (7.4)
  Adverse event: Dizziness: 10 (18.5)
  Adverse event: Fatigue: 4 (7.4)
  Adverse event: Hallucination: 4 (7.4)
  Adverse event: Headache: 5 (9.2)
  Adverse event: Insomnia: 2 (3.7)
  Adverse event: Nausea: 9 (16.7)
  Adverse event: Somnolence: 9 (16.7)
[10]; [15]
  Adverse event: Confusion: 9 (4.2)
  Adverse event: Constipation: 23 (10.8)
  Adverse event: Dizziness: 39 (18.3)
  Adverse event: Hallucination: 14 (6.6)
  Adverse event: Headache: 24 (11.3)
  Adverse event: Insomnia: 16 (7.5)
  Adverse event: Nausea: 42 (19.7)
  Adverse event: Somnolence: 58 (27.2)
[10]; pramipexole 1.5 mg, within 10 weeks
  patients with hallucinations: > 5%
[10]; pramipexole 1.5 mg/day, Week 10
  improvement of Total UPDRS scores versus placebo: 5.2 points
Dopamine D3 receptor
  Ki: 0.5 nM
D1 receptors
  affinity for D1 receptors, times lower than that to D3 receptors: around 200,000 times
